Columns and labels:
[1] = Peracetic acid formation rate and stability with N-acyl donors in parent solution (double titration); assay type: physicochemical; conditions: equimolar N-acyl donor dispersed in parent solution
Text: The other conditions (temperature, humidity, generator composition) being the same, equimolar amounts of the three N-acyl donors were dispersed in the parent solution to determine the formation rate of peracetic acid in the solution and the stability with time of such a concentration. The method adopted for quantitative determination of organic peroxyacid in the presence of a large excess of hydrogen peroxide (in this and in the following tests) was a sequential double-titration, the first of which is a permanganometric test designed to titre and eliminate any hydrogen peroxide in excess, and this was immediately followed by an iodometric titration to determine the concentration of the remaining organic peroxide. The results are shown below, both as activation rate (see FIG. 1), and stability of the peracetic acid concentration (see FIG. 2) are concerned.

[2] = Preliminary assessment of acetyl donating compounds; assay type: physicochemical
Text: Search work was initially directed towards finding out the best N-acyl and/or O-acyl activator of all those available and disclosed in the prior art referred to above. The features sought for in this initial search were: • a rapidly acting acylating agent (i.e. provided with an electrophilic carbonyl carbon) suitable for causing a perhydrolysis reaction due to electron-withdrawing effect on the carbonyl carbon and for providing a sufficiently high concentration of its respective peracid within short times (20–30 minutes) for the specified objects; • a good conservation under standard storage conditions (at temperatures ranging from 20° and 40° C.). • an ability to yield after activation an activated solution in which the organic peroxyacid concentration is as stable as possible. […]

[3] = test system: bacterial spores (sporicidal activity); assay: Minimum effective concentration (CME) by sporicidal activity; assay type: cell-based; conditions: minimum peracetic acid concentration with sporicidal activity over contact time of 15 minutes
Procedure: In the search study carried out with an endoscope washing machine, the solution was used by operating 10 full daily cycles of high-level disinfection or, better, cold-chemical sterilization for a total of 120 cycles. The contact time set for the sterilization step was 30 minutes. As it will be noted, immediately after activation, the concentration increases at a fast-rate, overcomes the minimum effective concentration level (Minimum Effective Concentration Level ═CME) equal to 0.05% w/v just after 15–20 minutes and reaches a maximum value equal to 0.35% w/v after 24 hours. During the following days, concentration decreases slowly down to a minimum effective level below which the effectiveness set forth below is not provided any longer. This threshold level (CME) was fixed and defined by means of the minimum % concentration of peracetic acid at which a sporicidal activity is still detected over a contact time of 15 minutes.

Q: What does the source list for `CC(=O)ON1C(=O)CCC1=O` [N-acetoxysuccinimide]?
A: Stability of peracetic acid concentration with time (FIG. 2) [1]: poor stability with time; Stability under standard storage conditions [2]: poor stability

Q: Which “Stability of peracetic acid concentration with time (FIG. 2)” value [1] does the source give for `CC(=O)N1CCCCCC1=O` [N-acetylcaprolactam] here?
A: good stability

Q: What does the source list for `CC(=O)N1C(=O)CCC1=O` [N-acetylsuccinimide]?
A: Stability of peracetic acid concentration with time (FIG. 2) [1]: behavior similar to that of N-OSU; Stability under standard storage conditions [2]: poor stability

Q: Which “Minimum Effective Concentration Level (CME)” value [3] does the source give for `CC(=O)OO` [peracetic acid] here?
A: 0.05 % w/v
